Experimental data as given in paper PMC12509316, “Isoform-Selective PAD2/PAD4 Substrates with Unnatural Amino Acids Enable Cellular Peptidylarginine Deiminase Activity Profiling and Reveal Vimentin Citrullination Effects in Macrophages” (Biochemistry, 2025).
Non-standard residues stand in square brackets, D forms with d. *: point of attachment. Phe(3-I) = N[C@@H](Cc1cccc(I)c1)C(=O)O; ACC = NC(=O)Cc1cc(=O)oc2cc(N*)ccc12; hCha = N[C@@H](CCC1CCCCC1)C(=O)O; hPhe = N[C@@H](CCc1ccccc1)C(=O)O; 3Pal = N[C@@H](Cc1cccnc1)C(=O)O; OBn = c1ccc(CO*)cc1

How the values were obtained:
THP-1 cells = test: Protein analysis of PMA-differentiated THP-1 cells (Western blot); type: cell-based, human; settings: for GSDMD cleavage / caspase-1 processing to p10 fragment / vimentin and GSDMD protein levels: 1 h pretreatment before 40 nM PMA; for GSDMD cleavage / caspase-1 processing to p10 fragment: BAPTA 10 μM, calpeptin 100 μM; for caspase-1 processing to p10 fragment / vimentin and GSDMD protein levels: Cl-amidine 25 μM, Z-DEVD-FMK 10 μM, VX-765 10 μM
Method: Low-passage THP-1 cells were seeded into 12-well plates and treated with increasing concentrations of phorbol 12-myristate 13-acetate (PMA) ranging from 1 nM to 100 nM. The cells were incubated for 24 h to allow adherence and differentiation. Following incubation, the cells were lysed, and the lysates were subjected to SDS-PAGE (200 V, 30 min) and Western blot analysis. The expression and cleavage of vimentin, gasdermin D (GSDMD), NLRP3, and caspase-1 were analyzed using specific primary antibodies (1:500–1:1,000), followed by incubation with an antirabbit secondary antibody conjugated to Alexa Fluor 800 (1:10,000). Fluorescence signals were detected using an Azure Biosystems Sapphire RGB-NIR biomolecular imager. Ponceau S staining was used as a loading control to ensure equal protein loading in each lane. In a subsequent experiment, THP-1 cells were pretreated with specific inhibitors for 1 h prior to PMA-induced differentiation (40 nM PMA). The inhibitors used were: BAPTA (10 μM, calcium chelator), calpeptin (100 μM, calpain inhibitor), 4-bisindolylmaleimide (25 μM, PKC inhibitor), N-α-benzoyl-N5-(2-chloro-1-iminoethyl)-L-Orn amide or Cl-amidine (25 μM, pan PAD inhibitor, PADi), Z-DEVD-FMK (10 μM, caspase-3 inhibitor), and VX-765 (10 μM, caspase-1 inhibitor). After PMA treatment, the cells were lysed, and the lysates were processed for SDS-PAGE (200 V, 30 min) and Western blotting. Protein detection and visualization were performed in the same manner as in the cell-based experiments without inhibitors.

PAD2 = test: Trypsin-coupled fluorogenic citrullination assay of ACC substrates with recombinant PAD2; type: biochemical, human; settings: for selectivity for PAD2 over PAD4: comparison of citrullination by PAD2 and PAD4, 37.5-300 nM enzyme; for citrullination of substrate by PAD2: substrate 10 μM, PAD2 37.5-300 nM (effective at 150-300 nM), 15 min preincubation, then trypsin 5 nM, ACC fluorescence ex 355/em 460 nm, pH 7.2, 5 mM CaCl2, triplicate
Method: (§1) All kinetic studies were conducted using an fMax fluorescence plate reader (Molecular Devices) operating in the fluorescence kinetic mode with 96- or 384-well plates. The fluorescence of ACC was monitored at excitation and emission wavelengths of 355 and 460 nm, respectively. The assay buffers for PADs and trypsin consisted of 100 mM TRIS-HCl, 10 mM NaCl, 5 mM CaCl2, and 5 mM DTT (pH 7.2). All experiments, including library screening and substrate kinetics, were repeated at least three times and the average values were reported. Kinetic data were analyzed using GraphPad Prism software (version 10.2.0).
(§2) Substrate screening for PAD2 and PAD4 was performed at a final substrate concentration of 10 μM, as described in “PAD substrate specificity profiling section”. PAD2 and PAD4 were tested across a concentration range of 37.5 nM to 300 nM, whereas the trypsin concentration was 5 nM. Briefly, each substrate was preincubated with the specified concentration of PAD in a 50 μL reaction volume (or in 50 μL of buffer for PAD-untreated control) for 15 min, after which 50 μL of trypsin was added to the reaction wells. The hydrolysis of Arg-containing substrates by trypsin was monitored over time. The percentage of substrate citrullination was calculated by comparing the extent of trypsin-mediated cleavage of untreated substrates with that of substrates preincubated with PAD. Each assay was performed in triplicate, and the resulting citrullination percentages are presented graphically. The standard deviation of each data point was less than 15%.

PAD4 [1] = test: Trypsin-coupled fluorogenic citrullination assay of ACC substrates with recombinant PAD4; type: biochemical, human; settings: for citrullination of substrate by PAD4: substrate 10 μM, PAD4 37.5-300 nM, 15 min preincubation, then trypsin 5 nM, ACC fluorescence ex 355/em 460 nm, pH 7.2, 5 mM CaCl2, triplicate; for selectivity for PAD4 over PAD2: comparison of citrullination by PAD4 and PAD2, 37.5-300 nM enzyme
Method: as §1, §2

[2] = tested on: PMA/LPS-treated THP-1 cells; test: Western blot of GSDMD and IL-1β processing after DAMP treatment; type: cell-based, human
Method: THP-1 cells were seeded and stimulated with PMA and LPS, as described in “Protein analysis of PMA-differentiated THP-1 cells” section. After stimulation, vimentin, citrullinated vimentin, or their cleavage products-generated by caspase-3 or calpain-1 digestion were added to the cells, which were then incubated for an additional 48 h. Following incubation, lactate dehydrogenase (LDH) activity in the supernatant was measured using the CytoTox 96 Non-Radioactive Cytotoxicity Assay (G1718) as an indicator of membrane disruption, according to the manufacturer’s protocol. Cytotoxicity was calculated as the percentage of LDH released from the treated samples relative to the LDH release induced by the lysis buffer and normalized to the spontaneous release from the control cells. Absorbance was measured at 490 nm using a spectrophotometric microplate reader (Gemini XPS, Molecular Devices). All experiments were independently performed in triplicate. Statistical analyses were performed using GraphPad Prism software (GraphPad Software, Inc., La Jolla, CA, USA). One-way ANOVA followed by Tukey’s multiple comparisons posthoc test was used to determine statistical significance. For Western blot analysis, proteins from the cell lysates were prepared as described in “Protein analysis of PMA-differentiated THP-1 cells”. To isolate proteins from the supernatant, 1 mL of the sample was mixed with 0.5 mL of 30% trichloroacetic acid (TCA) at room temperature and incubated on ice for 30 min. The mixture was centrifuged at 12,000 × g for 20 min at 4 °C. The supernatant was discarded, and the pellet was washed with 100 μL of 10% TCA, followed by centrifugation. The pellet was then washed with 300 μL of acetone, centrifuged again, and allowed to dry completely. The remaining residues were dissolved in SDS-PAGE loading buffer under reducing conditions. Proteins of interest were detected using primary antibodies against GSDMD and interleukin-1β (IL-1β), followed by secondary antirabbit antibodies conjugated with Alexa Fluor 800. Fluorescence signals were visualized using an Azure Biosystems Sapphire RGB-NIR biomolecular imager. Ponceau S staining was used as a loading control to verify equal protein loading in the SDS-PAGE.

PAD4 [3] = test: Vimentin citrullination assay (Western blot); type: biochemical, human; settings: recombinant vimentin 80 μg, 100 nM PAD4, 5-60 min
Method: Recombinant vimentin (80 μg) was incubated with 100 nM PAD4 for varying durations (5–60 min). Following incubation, the samples were subjected to SDS-PAGE, and the proteins were subsequently transferred onto a nitrocellulose membrane. Western blot analysis was performed using antivimentin and anticitrullinated vimentin antibodies, followed by a secondary antibody conjugated to Alexa Fluor 800 to assess the time-dependent decrease in native vimentin levels and the corresponding increase in citrullinated vimentin levels. Subsequently, both native and citrullinated vimentin were incubated with either human recombinant caspase-3 (20 nM) or calpain-1 (10 nM) for 30 min. After incubation, the samples were analyzed by SDS-PAGE followed by colloidal Coomassie dye G-250 (Thermo, 24590) staining.

## O=C(O)CN(CC(=O)O)c1ccccc1OCCOc1ccccc1N(CC(=O)O)CC(=O)O [BAPTA]
THP-1 cells
  GSDMD cleavage: cleavage of GSDMD
  caspase-1 processing to p10 fragment: processed into its active 10 kDa fragment

## Ac-[dY]A[hPhe]R-{ACC} (SMILES CC(=O)N[C@H](Cc1ccc(O)cc1)C(=O)N[C@@H](C)C(=O)N[C@@H](CCc1ccccc1)C(=O)N[C@@H](CCCNC(=N)N)C(=O)Nc1ccc2c(CC(N)=O)cc(=O)oc2c1) [(2)-NH-7]
PAD2
  selectivity for PAD2 over PAD4: most selective
  citrullination of substrate by PAD2: higher reactivity
PAD4 [1]
  citrullination of substrate by PAD4: only minor processing

## COC(=O)CC[C@H](NC(=O)[C@H](CC(=O)OC)NC(=O)OCc1ccccc1)C(=O)N[C@H](C(=O)N[C@@H](CC(=O)OC)C(=O)CF)C(C)C [Z-DEVD-fmk, Z-DEVD-FMK]
THP-1 cells
  caspase-1 processing to p10 fragment: prevented
  vimentin and GSDMD protein levels: marked downregulation

## CCO[C@@H]1OC(=O)C[C@@H]1NC(=O)[C@@H]1CCCN1C(=O)[C@@H](NC(=O)c1ccc(N)c(Cl)c1)C(C)(C)C [VX-765]
THP-1 cells
  caspase-1 processing to p10 fragment: prevented
  vimentin and GSDMD protein levels: marked downregulation

## Ac-D(OBn)[hCha]DR-{ACC} (SMILES CC(=O)N[C@@H](CC(=O)OCc1ccccc1)C(=O)N[C@@H](CCC1CCCCC1)C(=O)N[C@@H](CC(=O)O)C(=O)N[C@@H](CCCNC(=N)N)C(=O)Nc1ccc2c(CC(N)=O)cc(=O)oc2c1) [(4)-NH-11]
PAD2
  citrullination of substrate by PAD2: some degree of cross-reactivity

## CO[C@@H]1C[C@@H](C[C@H]2CC[C@H](C)[C@H]([C@@H](C)C(=O)O)O2)O[C@]2(O[C@](C)([C@H]3CC[C@@](C)([C@@H]4O[C@@H]([C@H]5O[C@@](O)(CO)[C@H](C)C[C@@H]5C)C[C@@H]4C)O3)C[C@H]2C)[C@@H]1C [nigericin, reference compound]
[2]
  GSDMD processing fragment: p31 fragment
  pro-IL-1β processing: activation of pro-interleukin-1β

## CCCCCCCCCCCCCC(=O)O[C@@H]1[C@@H](C)[C@@]2(O)[C@@H](C=C(CO)C[C@]3(O)C(=O)C(C)=C[C@@H]23)[C@@H]2C(C)(C)[C@]12OC(C)=O [PMA, phorbol 12-myristate 13-acetate]
THP-1 cells; PMA 1-100 nM, 24 h
  GSDMD and NLRP3 protein levels: downregulating
  vimentin protein level: dose-dependent upregulation

## vimentin: Recombinant vimentin, purchased from Biotechne (NBP2-35139)
PAD4 [3]
  citrullination of vimentin by PAD4: efficient citrullination
[2]
  pro-IL-1β processing: no cleavage

## CCCC[C@@H](C=O)NC(=O)[C@H](CC(C)C)NC(=O)OCc1ccccc1 [calpeptin]
THP-1 cells
  GSDMD cleavage: cleavage of GSDMD
  caspase-1 processing to p10 fragment: processed into its active 10 kDa fragment

## Ac-NV[hCha]R-{ACC} (SMILES CC(=O)N[C@@H](CC(N)=O)C(=O)N[C@H](C(=O)N[C@@H](CCC1CCCCC1)C(=O)N[C@@H](CCCNC(=N)N)C(=O)Nc1ccc2c(CC(N)=O)cc(=O)oc2c1)C(C)C) [(2)-NH-8]
PAD2
  selectivity for PAD2 over PAD4: most selective
  citrullination of substrate by PAD2: higher reactivity
PAD4 [1]
  citrullination of substrate by PAD4: only minor processing

## Ac-D(OBn)[dY]DR-{ACC} (SMILES CC(=O)N[C@@H](CC(=O)OCc1ccccc1)C(=O)N[C@H](Cc1ccc(O)cc1)C(=O)N[C@@H](CC(=O)O)C(=O)N[C@@H](CCCNC(=N)N)C(=O)Nc1ccc2c(CC(N)=O)cc(=O)oc2c1) [(4)-NH-2]
PAD2
  citrullination of substrate by PAD2: poorly recognized
PAD4 [1]
  selectivity for PAD4 over PAD2: most selective
  citrullination of substrate by PAD4: efficiently processed

## Ac-[Phe(3-I)][hCha]DR-{ACC} (SMILES CC(=O)N[C@@H](Cc1cccc(I)c1)C(=O)N[C@@H](CCC1CCCCC1)C(=O)N[C@@H](CC(=O)O)C(=O)N[C@@H](CCCNC(=N)N)C(=O)Nc1ccc2c(CC(N)=O)cc(=O)oc2c1) [(4)-NH-13]
PAD2
  citrullination of substrate by PAD2: some degree of cross-reactivity

## N=C(CCl)NCCC[C@H](NC(=O)c1ccccc1)C(N)=O [Cl-amidine, N-α-benzoyl-N5-(2-chloro-1-iminoethyl)-L-Orn amide]
THP-1 cells
  caspase-1 processing to p10 fragment: prevented
  vimentin and GSDMD protein levels: marked downregulation

## citrullinated vimentin: PAD4-mediated citrullinated vimentin
[2]
  pro-IL-1β processing: no cleavage

## Ac-[Phe(3-I)][3Pal]DR-{ACC} (SMILES CC(=O)N[C@@H](Cc1cccc(I)c1)C(=O)N[C@@H](Cc1cccnc1)C(=O)N[C@@H](CC(=O)O)C(=O)N[C@@H](CCCNC(=N)N)C(=O)Nc1ccc2c(CC(N)=O)cc(=O)oc2c1) [(4)-NH-12]
PAD2
  citrullination of substrate by PAD2: poorly recognized
PAD4 [1]
  selectivity for PAD4 over PAD2: most selective
  citrullination of substrate by PAD4: efficiently processed
